Assay results: patent publication US20040087553A1, “Hypoestoxides, derivatives and agonists thereof for use in the treatment and prophylaxis of hyperlipidemia” (Paraquest, Inc., priority 2002, published 2004)

Assay: Effect of oral hypoestoxide on blood cholesterol and triglyceride levels in a beagle dog (standard colorimetric method on sera)
Assay type: in vivo
Settings: 30 mg/kg oral once daily for seven days; for Triglycerides / Cholesterol: dog serum; for Triglycerides: day −1 value 300; for Cholesterol: day −1 value 308
Method: In one example, hypoestoxide was administered orally to a 2-year-old female beagle dog at a dose of 30 mg/kg, once daily for seven days. Blood cholesterol and triglyceride levels were determined in sera obtained at days 1, 3, 7 and 14, respectively. Assays were performed by a standard colorimetric method by a commercial laboratory (Antech Diagnostics, Irvine, Calif.).

C=C1C(=O)C[C@H]2C[C@@H]3O[C@@]3(C)CC[C@@H]3O[C@@]3(C)C[C@@H](OC(C)=O)[C@H]1C2(C)C [hypoestoxide]
blood cholesterol and triglyceride levels (effect in words) (beagle dog): significantly lowered | Triglycerides (day 1, normal reference range 29-291): 296 mg/dL | Cholesterol (day 1, normal reference range 92-324): 122 mg/dL | Triglycerides (day 3): 70 mg/dL | Cholesterol (day 3): 130 mg/dL | Triglycerides (day 7): 33 mg/dL | Cholesterol (day 7): 124 mg/dL | Triglycerides (day 14): 51 mg/dL | Cholesterol (day 14): 134 mg/dL
